The NIST ThermoML archive (doi:10.1016/j.jct.2018.08.005)

Experiment: xn = mol fraction of the nth substance listed
Conditions: Liquid; for mass density: Vibrating tube method; for speed of sound: Frequency=3 MHz, Pulse-echo method

CCOC(F)(C(F)(F)C(F)(F)C(F)(F)F)C(F)(C(F)(F)F)C(F)(F)F (stereo not given) [2-trifluoromethyl-3-ethoxydodecafluorohexane] + CC(C)OC(C)C
Conditions | mass density, x1 = 0.25 [kg/m3] | mass density, x1 = 0.375 [kg/m3] | mass density, x1 = 0.5 [kg/m3] | mass density, x1 = 0.625 [kg/m3] | mass density, x1 = 0.75 [kg/m3] | speed of sound, x1 = 0.25 [m/s] | speed of sound, x1 = 0.375 [m/s] | speed of sound, x1 = 0.5 [m/s] | speed of sound, x1 = 0.625 [m/s] | speed of sound, x1 = 0.75 [m/s]
313.15 K, 50000 kPa | – | – | – | 1451.1 | 1541 | – | – | – | – | –
313.15 K, 60000 kPa | 1111.4 | 1244.1 | 1360.5 | 1464.9 | 1555.4 | 1065.1 | 1009.2 | 967.9 | 946.8 | 921.7
313.15 K, 70000 kPa | 1121.5 | 1255 | 1372.6 | 1477.7 | 1568.7 | – | – | – | – | –
313.15 K, 80000 kPa | 1130.9 | 1265.4 | 1383.8 | 1489.6 | 1581.1 | 1141.4 | 1082.8 | 1039.3 | 1017.4 | 990.1
313.15 K, 90000 kPa | 1139.7 | 1275.3 | 1394.3 | 1500.7 | 1592.6 | – | – | – | – | –
313.15 K, 100000 kPa | 1148 | 1284.4 | 1404.2 | 1511.1 | 1603.5 | 1209.6 | 1148.8 | 1102.9 | 1079.9 | 1050.9
313.15 K, 110000 kPa | 1156 | 1293.2 | 1413.7 | 1521.2 | 1614 | – | – | – | – | –
313.15 K, 120000 kPa | 1163.3 | 1301.3 | 1422.4 | 1530.6 | 1623.6 | – | – | – | – | –
313.15 K, 130000 kPa | 1170.4 | 1309.4 | 1431 | 1539.5 | 1633 | – | – | – | – | –
313.15 K, 140000 kPa | 1177.2 | 1316.8 | 1439 | 1548.1 | 1641.9 | – | – | – | – | –
323.15 K, 100 kPa | 1006.7 | 1127.2 | 1235 | 1332.2 | 1418.1 | 693.3 | 650 | 624.3 | 609.9 | 597.4
323.15 K, 10000 kPa | 1029 | 1152.3 | 1262 | 1360.8 | 1447.4 | – | – | – | – | –
323.15 K, 20000 kPa | 1047.5 | 1173 | 1284.2 | 1384.2 | 1471.7 | 841.6 | 794.7 | 761.3 | 745.2 | 726.1
323.15 K, 30000 kPa | 1063.3 | 1190.5 | 1303.2 | 1404.3 | 1492.5 | – | – | – | – | –
323.15 K, 40000 kPa | 1077.2 | 1206.1 | 1319.9 | 1421.9 | 1510.7 | 952.5 | 901 | 862.9 | 846.1 | 822.8
323.15 K, 50000 kPa | 1089.7 | 1220 | 1334.9 | 1437.6 | 1527.2 | – | – | – | – | –
323.15 K, 60000 kPa | 1101 | 1232.6 | 1348.5 | 1452 | 1542.2 | 1043.6 | 987.7 | 946.9 | 927.8 | 902.5
323.15 K, 70000 kPa | 1111.5 | 1244.2 | 1361 | 1465.1 | 1555.9 | – | – | – | – | –
323.15 K, 80000 kPa | 1121.1 | 1255 | 1372.5 | 1477.3 | 1568.7 | 1123.2 | 1063 | 1019.6 | 998.6 | 971.8
323.15 K, 90000 kPa | 1130.2 | 1265.1 | 1383.4 | 1488.8 | 1580.6 | – | – | – | – | –
323.15 K, 100000 kPa | 1138.8 | 1274.5 | 1393.7 | 1499.6 | 1591.9 | 1193.8 | 1129.2 | 1084.4 | 1061.6 | 1033.7
323.15 K, 110000 kPa | 1146.9 | 1283.5 | 1403.2 | 1509.8 | 1602.5 | – | – | – | – | –
323.15 K, 120000 kPa | 1154.5 | 1291.9 | 1412.4 | 1519.5 | 1612.5 | – | – | – | – | –
323.15 K, 130000 kPa | 1161.7 | 1299.9 | 1421.1 | 1528.7 | 1622.1 | – | – | – | – | –
323.15 K, 140000 kPa | 1168.7 | 1307.7 | 1429.4 | 1537.4 | 1631.3 | – | – | – | – | –
333.15 K, 100 kPa | 990.5 | 1109.5 | 1216.5 | 1312.3 | 1397.5 | 659.8 | 617.9 | 593.4 | 579.9 | 568.6
333.15 K, 10000 kPa | 1014.9 | 1137 | 1245.9 | 1343.3 | 1429.3 | – | – | – | – | –
333.15 K, 20000 kPa | 1034.7 | 1159.2 | 1269.8 | 1368.5 | 1455.3 | 816 | 769.7 | 737.4 | 720.8 | 703.1
333.15 K, 30000 kPa | 1051.5 | 1177.9 | 1290 | 1389.8 | 1477.3 | – | – | – | – | –
333.15 K, 40000 kPa | 1066.2 | 1194.2 | 1307.5 | 1408.4 | 1496.6 | 930.9 | 878.9 | 842 | 823.8 | 802.8
333.15 K, 50000 kPa | 1079.3 | 1208.8 | 1323.2 | 1424.9 | 1513.8 | – | – | – | – | –
333.15 K, 60000 kPa | 1091.1 | 1222 | 1337.3 | 1439.9 | 1529.4 | 1024.9 | 968.2 | 927.8 | 907.5 | 884.3
333.15 K, 70000 kPa | 1101.9 | 1234 | 1350.3 | 1453.7 | 1543.7 | – | – | – | – | –
333.15 K, 80000 kPa | 1112 | 1244.9 | 1362.3 | 1466.4 | 1556.9 | 1106.8 | 1044.5 | 1001.6 | 980 | 954.4
333.15 K, 90000 kPa | 1121.4 | 1255.4 | 1373.5 | 1478.4 | 1569.3 | – | – | – | – | –
333.15 K, 100000 kPa | 1130.3 | 1265.1 | 1384 | 1489.4 | – | – | 1111.7 | 1067.2 | 1043.9 | 1016.8
